Experimental data: US20260069588A1, “VEPDEGESTRANT FOR USE IN TREATING CANCER” (Arvinas Operation, Inc., priority 2022, published 2026)

Experiments:
progesterone receptor = progesterone receptor (Homo sapiens, UniProt P06401); test: Secondary pharmacodynamics binding, progesterone receptor; conditions: in vitro
[1] = Clinical Pharmacology Study: adverse events in healthy volunteers
Description: The severity of adverse events was graded according to the National Cancer Institute Common Terminology Criteria for Adverse Events (NCI CTCAE) version 5.0.

[2] = Caco-2 bidirectional permeability; assay type: in vitro ADME; conditions: human, Caco-2, 1.125 pM
Caco-2 cells = test: Caco-2 bidirectional permeability; assay type: in vitro ADME; conditions: 11.25 μM
[3] = Preliminary embryo-fetal development study
[4] = female, Sprague-Dawley, rat, in vivo, oral, 30 mg/kg/day

progesterone receptor, sequence (P06401 whole entry, species assumed): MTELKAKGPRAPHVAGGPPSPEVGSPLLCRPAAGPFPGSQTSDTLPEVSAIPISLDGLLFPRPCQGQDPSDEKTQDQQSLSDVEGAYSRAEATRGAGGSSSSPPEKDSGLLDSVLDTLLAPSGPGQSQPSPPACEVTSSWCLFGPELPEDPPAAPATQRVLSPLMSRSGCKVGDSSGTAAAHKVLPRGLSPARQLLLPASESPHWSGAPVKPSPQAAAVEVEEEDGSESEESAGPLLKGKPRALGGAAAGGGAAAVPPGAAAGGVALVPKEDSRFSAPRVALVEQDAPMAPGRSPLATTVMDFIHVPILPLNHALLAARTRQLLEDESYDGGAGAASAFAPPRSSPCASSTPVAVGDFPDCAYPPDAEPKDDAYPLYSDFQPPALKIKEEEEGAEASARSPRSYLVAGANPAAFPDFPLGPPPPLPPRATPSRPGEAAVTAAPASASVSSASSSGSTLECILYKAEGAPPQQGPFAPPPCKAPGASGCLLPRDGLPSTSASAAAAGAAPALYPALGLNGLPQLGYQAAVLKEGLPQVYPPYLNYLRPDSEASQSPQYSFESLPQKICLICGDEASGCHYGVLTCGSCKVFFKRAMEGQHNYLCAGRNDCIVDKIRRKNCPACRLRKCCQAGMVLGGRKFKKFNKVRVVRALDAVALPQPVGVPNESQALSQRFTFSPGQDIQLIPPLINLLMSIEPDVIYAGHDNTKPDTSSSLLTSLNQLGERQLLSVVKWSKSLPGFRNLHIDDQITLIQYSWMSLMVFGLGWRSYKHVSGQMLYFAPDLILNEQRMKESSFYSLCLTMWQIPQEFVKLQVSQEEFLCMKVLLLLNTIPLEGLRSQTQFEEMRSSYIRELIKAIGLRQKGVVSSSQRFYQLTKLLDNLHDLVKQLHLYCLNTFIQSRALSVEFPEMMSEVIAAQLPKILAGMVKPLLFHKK

## O=C1CC[C@H](N2Cc3cc(N4CCN(CC5CCN(c6ccc([C@@H]7c8ccc(O)cc8CC[C@@H]7c7ccccc7)cc6)CC5)CC4)ccc3C2=O)C(=O)N1 [Compound A, (S)-3-(5-(4-((1-(4-((1R,2S)-6-hydroxy-2-phenyl-1,2,3,4-tetrahydronaphthalen-1-yl)phenyl)piperidin-4-yl)methyl)piperazin-1-yl)-1-oxoisoindolin-2-yl)piperidine-2,6-dione]
Progesterone receptor
  binding: bound
[1]; 200 mg, healthy participants
  TRAEs of Grade 2 or higher: no TRAEs of Grade 2 or higher were reported
  tolerability: well-tolerated
[1]; Fast/Fed cohort
  Grade 1 TEAEs: 21.4%
  Grade 2 TEAEs: 14.3%
  Grade 3 or higher TEAEs: No participants reported Grade 3 or higher TEAEs
[1]; Fast/Fed cohort n=14
  TEAE ligament sprain: 14.3%
  TRAE pollakiuria: 7.1%
[1]; PPI cohort
  Grade 1 TEAEs: 47.1%
  Grade 2 TEAEs: 5.9%
  Grade 3 or higher TEAEs: No participants reported Grade 3 or higher TEAEs
  TRAEs nausea, headache, pruritus, each: 5.9%
[1]; PPI cohort n=17
  TEAE Headache: 29.4%
  participants with at least 1 TRAE: 11.8%
[1]; PPI cohort, due to COVID
  participants with TEAE leading to discontinuation: One
[1]; all cohorts
  SAEs, SARs, deaths: No SAEs, SARs or deaths were reported
  participants with at least 1 TRAE: 3 of 47 participants
[1]; all cohorts, 200 mg
  participants with TEAEs: 15 of 47 participants
[1]; rBA cohort n=16
  TRAEs: No participants reported a TRAE
  participants with a TEAE (dizziness, Grade 1): 6.3%
[2]; read-out: permeability apical to basolateral
  Papp A→B at 1.125 pM: 1.33 ×10⁻⁶ cm/s
[2]; read-out: permeability basolateral to apical
  Papp B→A at 1.125 pM: 0.08 ×10⁻⁶ cm/s
Caco-2 cells
  bidirectional permeability: Similarly low bidirectional permeability
[3]; 30 mg/kg
  TK animals confirmed pregnant at GD 18: 5/6
  females with pregnancy confirmed at GD 21: 7/8
[3]; 30 mg/kg/day
  post implantation loss: 47.31%
[3]; 30 mg/kg/day, controls 11.3
  mean number of live fetuses: 7.0 live fetuses/litter
[3]; 100 mg/kg
  TK animals confirmed pregnant at GD 18: 3/6
  females with pregnancy confirmed at GD 21: 4/8
[3]; 100 mg/kg/day
  mean number of live fetuses: no live fetuses/litter
  post implantation loss: 100%
[3]; 300 mg/kg
  TK animals confirmed pregnant at GD 18: 0/6
  females with pregnancy confirmed at GD 21: 0/8
[3]; [4]
  AUC(0-t): 4380 ng·h/mL
  Cmax: 291 ng/mL
[3]; surviving fetuses, 30 mg/kg/day
  external or visceral malformations or variations: did not produce any external or visceral malformations or variations
